# Laboratory results from patent US10597388B2, “Pyridazinone herbicides” (FMC CORPORATION, priority 2014, dated 2020).
# Assays:
# Test in all cases: Test D controlled growth environment herbicide test, pre- and postemergence
# Type in all cases: in vivo
# kochia (Kochia scoparia) = tested on: kochia (Kochia scoparia)
# Source text: (§1) Seeds of plant species selected from bluegrass (annual bluegrass, Poa annua), blackgrass (Alopecurus myosuroides), Canada thistle (Cirsium arvense), canarygrass (Phalaris minor), chickweed (common chickweed, Stellaria media), geranium, cutleaf (cutleaf geranium, Geranium dissectum), galium (catchweed bedstraw, Galium aparine), bromegrass, downy (downy bromegrass, Bromus tectorum), field poppy (Papaver rhoeas), field violet (Viola arvensis), foxtail, green (green foxtail, Setaria viridis), deadnettle (henbit deadnettle, Lamium amplexicaule), ryegrass, Italian (Italian ryegrass, Lolium multiflorum), kochia (Kochia scoparia), lambsquarters (Chenopodium album), oilseed rape (Brassica napus), pigweed (Amaranthus retroflexus), chamomile (scentless chamomile, Matricaria inodora), Russian thistle (Salsola kali), speedwell (bird's-eye speedwell, Veronica persica), barley, spring (spring barley, Hordeum vulgare), wheat, spring (spring wheat, Triticum aestivum), buckwheat, wild (wild buckwheat, Polygonum convolvulus), mustard, wild (wild mustard, Sinapis arvensis), oat, wild (wild oat, Avena fatua), radish, wild (wild radish, Raphanus raphanistrum), windgrass (Apera spica-venti), barley, winter (winter barley, Hordeum vulgare), and wheat, winter (winter wheat, Triticum aestivum) were planted into a silt loam soil and treated preemergence with test chemicals formulated in a non-phytotoxic solvent mixture which included a surfactant.
# (§2) At the same time, these species were planted in pots containing Redi-Earth® planting medium (Scotts Company, 14111 Scottslawn Road, Marysville, Ohio 43041) comprising spaghnum peat moss, vermiculite, wetting agent and starter nutrients and treated with postemergence applications of the test chemicals formulated in the same manner. Plants ranged in height from 2 to 18 cm (1- to 4-leaf stage). Treated plants and controls were maintained in a controlled growth environment for 14 to 21 d after which time all species were compared to controls and visually evaluated. Plant response ratings, summarized in Table D, are based on a scale of 0 to 100 where 0 is no effect and 100 is complete control. A dash (-) response means no test result.
# [1] = tested on: wheat, spring (spring wheat, Triticum aestivum)
# Source text: as §1, §2
# [2] = tested on: blackgrass (Alopecurus myosuroides)
# Source text: as §1, §2
# [3] = tested on: wheat, winter (winter wheat, Triticum aestivum)
# Source text: as §1, §2
# [4] = tested on: Russian thistle (Salsola kali)
# Source text: as §1, §2
# [5] = tested on: windgrass (Apera spica-venti)
# Source text: as §1, §2
# [6] = tested on: lambsquarters (Chenopodium album)
# Source text: as §1, §2
# [7] = tested on: foxtail, green (green foxtail, Setaria viridis)
# Source text: as §1, §2
# [8] = tested on: deadnettle (henbit deadnettle, Lamium amplexicaule)
# Source text: as §1, §2
# [9] = tested on: chickweed (common chickweed, Stellaria media)
# Source text: as §1, §2
# [10] = tested on: field violet (Viola arvensis)
# Source text: as §1, §2
# [11] = tested on: ryegrass, Italian (Italian ryegrass, Lolium multiflorum)
# Source text: as §1, §2
# [12] = tested on: canarygrass (Phalaris minor)
# Source text: as §1, §2
# [13] = Postemergence, 31 g ai/ha, scale 0 to 100 (0 no effect, 100 complete control)
# [14] = Postemergence, 125 g ai/ha, visual rating on scale 0 (no effect) to 100 (complete control), 14 to 21 d
# [15] = Postemergence, 250 g ai/ha, scale 0 to 100 (0 no effect, 100 complete control)
# [16] = Preemergence, 62 g ai/ha, scale 0 to 100 (0 no effect, 100 complete control)
# [17] = Preemergence, 125 g ai/ha, scale 0 to 100 (0 no effect, 100 complete control)
# [18] = Preemergence, 250 g ai/ha, scale 0 to 100 (0 no effect, 100 complete control)
# [19] = postemergence, 62 g ai/ha, scale 0 to 100, 0 no effect, 100 complete control
smiles,measurement,setting,value
Cc1ccc2ccccc2c1-c1c(O)c(C)nn(C)c1=O [Compound 59],Kochia plant response rating,kochia (Kochia scoparia); [13],95
same,"Plant response rating, Kochia",kochia (Kochia scoparia); [14],95
same,"Plant response rating, Kochia",kochia (Kochia scoparia); [15],100
same,"Plant response rating (scale of 0 to 100), Kochia","kochia (Kochia scoparia); Preemergence, 31 g ai/ha",20
same,"Plant response rating, Kochia",kochia (Kochia scoparia); [16],60
same,"Plant response rating, Kochia",kochia (Kochia scoparia); [17],95
same,"Plant response rating, Kochia",kochia (Kochia scoparia); [18],100
same,"Plant response rating, Kochia",kochia (Kochia scoparia); [19],95
same,"Wheat, Spring plant response rating",[1]; [13],40
same,"Plant response rating, Wheat, Spring",[1]; [14],70
same,"Plant response rating, Wheat, Spring",[1]; [15],80
same,"Plant response rating (scale of 0 to 100), Wheat, Spring","[1]; Preemergence, 31 g ai/ha",35
same,"Plant response rating, Wheat, Spring",[1]; [16],65
same,"Plant response rating, Wheat, Spring",[1]; [17],80
same,"Plant response rating, Wheat, Spring",[1]; [18],85
same,"Plant response rating, Wheat, Spring",[1]; [19],45
same,Blackgrass plant response rating,[2]; [13],70
same,"Plant response rating, Blackgrass",[2]; [14],85
same,"Plant response rating, Blackgrass",[2]; [15],85
same,"Plant response rating (scale of 0 to 100), Blackgrass","[2]; Preemergence, 31 g ai/ha",85
same,"Plant response rating, Blackgrass",[2]; [16],90
same,"Plant response rating, Blackgrass",[2]; [17],95
same,"Plant response rating, Blackgrass",[2]; [18],100
same,"Plant response rating, Blackgrass",[2]; [19],80
same,"Wheat, Winter plant response rating",[3]; [13],35
same,"Plant response rating, Wheat, Winter",[3]; [14],55
same,"Plant response rating, Wheat, Winter",[3]; [15],80
same,"Plant response rating (scale of 0 to 100), Wheat, Winter","[3]; Preemergence, 31 g ai/ha",10
same,"Plant response rating, Wheat, Winter",[3]; [16],35
same,"Plant response rating, Wheat, Winter",[3]; [17],70
same,"Plant response rating, Wheat, Winter",[3]; [18],80
same,"Plant response rating, Wheat, Winter",[3]; [19],40
same,Russian Thistle plant response rating,[4]; [13],80
same,"Plant response rating, Russian Thistle",[4]; [14],85
same,"Plant response rating, Russian Thistle",[4]; [15],85
same,"Plant response rating (scale of 0 to 100), Russian Thistle","[4]; Preemergence, 31 g ai/ha",40
same,"Plant response rating, Russian Thistle",[4]; [16],50
same,"Plant response rating, Russian Thistle",[4]; [17],80
same,"Plant response rating, Russian Thistle",[4]; [18],90
same,"Plant response rating, Russian Thistle",[4]; [19],80
same,Windgrass plant response rating,[5]; [13],75
same,"Plant response rating, Windgrass",[5]; [14],80
same,"Plant response rating, Windgrass",[5]; [15],85
same,"Plant response rating (scale of 0 to 100), Windgrass","[5]; Preemergence, 31 g ai/ha",85
same,"Plant response rating, Windgrass",[5]; [16],85
same,"Plant response rating, Windgrass",[5]; [17],100
same,"Plant response rating, Windgrass",[5]; [18],100
same,"Plant response rating, Windgrass",[5]; [19],80
same,Lambsquarters plant response rating,[6]; [13],90
same,"Plant response rating, Lambsquarters",[6]; [14],90
same,"Plant response rating, Lambsquarters",[6]; [15],95
same,"Plant response rating (scale of 0 to 100), Lambsquarters","[6]; Preemergence, 31 g ai/ha",95
same,"Plant response rating, Lambsquarters",[6]; [16],100
same,"Plant response rating, Lambsquarters",[6]; [17],100
same,"Plant response rating, Lambsquarters",[6]; [18],100
same,"Plant response rating, Lambsquarters",[6]; [19],85
same,"Foxtail, Green plant response rating",[7]; [13],65
same,"Plant response rating, Foxtail, Green",[7]; [14],75
same,"Plant response rating, Foxtail, Green",[7]; [15],85
same,"Plant response rating (scale of 0 to 100), Foxtail, Green","[7]; Preemergence, 31 g ai/ha",55
same,"Plant response rating, Foxtail, Green",[7]; [16],75
same,"Plant response rating, Foxtail, Green",[7]; [17],85
same,"Plant response rating, Foxtail, Green",[7]; [18],100
same,"Plant response rating, Foxtail, Green",[7]; [19],70
same,Deadnettle plant response rating,[8]; [13],80
same,"Plant response rating, Deadnettle",[8]; [14],90
same,"Plant response rating, Deadnettle",[8]; [15],100
same,"Plant response rating (scale of 0 to 100), Deadnettle","[8]; Preemergence, 31 g ai/ha",50
same,"Plant response rating, Deadnettle",[8]; [16],90
same,"Plant response rating, Deadnettle",[8]; [17],90
same,"Plant response rating, Deadnettle",[8]; [18],100
same,"Plant response rating, Deadnettle",[8]; [19],80
same,Chickweed plant response rating,[9]; [13],100
same,"Plant response rating, Chickweed",[9]; [14],100
same,"Plant response rating, Chickweed",[9]; [15],100
same,"Plant response rating (scale of 0 to 100), Chickweed","[9]; Preemergence, 31 g ai/ha",100
same,"Plant response rating, Chickweed",[9]; [16],100
same,"Plant response rating, Chickweed",[9]; [17],100
same,"Plant response rating, Chickweed",[9]; [18],100
same,"Plant response rating, Chickweed",[9]; [19],98
same,Field Violet plant response rating,[10]; [13],75
same,"Plant response rating, Field Violet",[10]; [14],95
same,"Plant response rating, Field Violet",[10]; [15],95
same,"Plant response rating (scale of 0 to 100), Field Violet","[10]; Preemergence, 31 g ai/ha",80
same,"Plant response rating, Field Violet",[10]; [16],90
same,"Plant response rating, Field Violet",[10]; [17],95
same,"Plant response rating, Field Violet",[10]; [18],100
same,"Plant response rating, Field Violet",[10]; [19],80
same,"Ryegrass, Italian plant response rating",[11]; [13],80
same,"Plant response rating, Ryegrass, Italian",[11]; [14],90
same,"Plant response rating, Ryegrass, Italian",[11]; [15],90
same,"Plant response rating (scale of 0 to 100), Ryegrass, Italian","[11]; Preemergence, 31 g ai/ha",100
same,"Plant response rating, Ryegrass, Italian",[11]; [16],100
same,"Plant response rating, Ryegrass, Italian",[11]; [17],100
same,"Plant response rating, Ryegrass, Italian",[11]; [18],100
same,"Plant response rating, Ryegrass, Italian",[11]; [19],90
same,Canarygrass plant response rating,[12]; [13],75
same,"Plant response rating, Canarygrass",[12]; [14],90
same,"Plant response rating, Canarygrass",[12]; [15],90
same,"Plant response rating (scale of 0 to 100), Canarygrass","[12]; Preemergence, 31 g ai/ha",80
same,"Plant response rating, Canarygrass",[12]; [16],90
same,"Plant response rating, Canarygrass",[12]; [17],95
same,"Plant response rating, Canarygrass",[12]; [18],100
same,"Plant response rating, Canarygrass",[12]; [19],80
